In PMC3707518 (Journal of nuclear medicine : official publication, Society …, 2010):
Values joined by “and” are separate entries in the source; they are usually repeats but may differ in a detail not shown here. Identical values can stand only once.

What was measured:
[1] = molecular target: T1, β2*-nAChRs (Homo sapiens, UniProt P17787); test: ^123I-5-IA SPECT regional uptake; type: in vivo
[2] = test system: β2*-nAChRs; conditions: nonhuman primates, cited from earlier work
[3] = cited from earlier work
[4] = test system: β2*-nAChR; conditions: cited from earlier work
[5] = molecular target: T1, β2*-nAChRs; conditions: 3 h after smoking challenge; representative subject, Fig. 4
[6] = molecular target: T1, β2*-nAChRs; conditions: 3.1 h; cited from earlier work
[7] = dependent smokers; cited from earlier work
[8] = Plasma nicotine and cotinine levels, smoking challenge and abstinence check

T1 sequence (P17787 26-502): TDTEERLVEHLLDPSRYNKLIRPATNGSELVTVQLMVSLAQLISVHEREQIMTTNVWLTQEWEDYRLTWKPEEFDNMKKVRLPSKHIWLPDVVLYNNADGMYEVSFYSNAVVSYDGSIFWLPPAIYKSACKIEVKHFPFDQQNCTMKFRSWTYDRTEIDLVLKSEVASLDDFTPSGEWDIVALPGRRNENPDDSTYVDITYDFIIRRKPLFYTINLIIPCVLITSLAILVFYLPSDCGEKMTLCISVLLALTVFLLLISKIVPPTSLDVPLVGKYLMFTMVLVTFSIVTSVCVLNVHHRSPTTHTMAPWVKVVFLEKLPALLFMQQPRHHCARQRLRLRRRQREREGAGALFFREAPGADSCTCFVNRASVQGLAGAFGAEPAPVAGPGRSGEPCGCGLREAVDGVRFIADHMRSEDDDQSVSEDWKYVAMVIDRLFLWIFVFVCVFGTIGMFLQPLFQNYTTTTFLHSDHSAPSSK

## [123I]c1cncc(OC[C@@H]2CCN2)c1 [^123I-5-IA, 5-^123I-iodo-85380]
[1]; average and range across subjects, brain, after smoking to satiety
  Nondisplaceable uptake VND/fp: 19.4 ± 5.8 mL·cm^−3 and 15–28 mL·cm^−3
[1]; not corrected for plasma free fraction
  Average VND without correcting for fp: 7.03 ± 1.92 kBq/cm^3
[2]; inferred from specific binding
  Nondisplaceable binding in the thalamus: about 30%
[2]
  Specific binding in the thalamus: about 70%
[3]
  Safety: safe and nontoxic

## c1cncc(OC[C@@H]2CCN2)c1 [A-85380, 3-[2(S)-2-azetidinylmethoxy]pyridine]
[4]
  Affinity: high affinity
  Selectivity for the β2*-nAChR: high selectivity

## CN1CCC[C@H]1c1cccnc1 [nicotine]
[5]
  Maximal occupancy: 69.1%
[6]
  Nicotine in blood at the time of greatest occupancy: less than 4 ng/mL
[7]
  Time for nicotine from tobacco smoke to reach the brain after inhalation: ≤ 30 s
[8]; after initiation of tobacco smoking, representative subject, Fig. 2B
  Time of highest nicotine concentration: 20 min
[8]; after smoking to satiety, individual subjects 1-10 and mean ± SD
  Blood nicotine area under curve (60 min): 4,864.0 and 3,764.0 and 8,273.0 and 8,124.0 and 8,544.3 ± 7,068.8 and 3,470.0 and 7,153.0 and 7,840.0 and 27,700.0 and 4,488.0 and 9,767.0
